Assay results reported in US11845773B2, “Trehalose analogues” (Central Michigan University, priority 2016, dated 2023).

Tests used:
[1] = tested on: Msmeg; test: Metabolic labeling of Msmeg with TMM reporters 1-6 (CuAAC, SPAAC, tetrazine ligation or one-step); details: 4 h; for concentration of labeling saturation: Msmeg and Cglut, range up to 250 μM, flow cytometry (FIG. 62)
[2] = tested on: Ag85; test: Effect of ebselen on AlkTMM labeling in Msmeg (Ag85 dependency); format: cell-based, Mycobacterium smegmatis; details: ebselen 50 μg/mL 8 h; for decrease of labeling upon treatment of Msmeg with ebselen: then reporter 4 h (O-AlkTMM 50 μM; N-AlkTMM 100 μM)
Protocol: Effect of ebselen on AlkTMM labeling in Msmeg. Msmeg was cultured in 7H9 liquid medium in 96-well plates in the presence of ebselen (50 μg/mL) for 8 hours, after which the chemical reporter (O-AlkTMM, 50 μM; N-AlkTMM, 100 μM; 6-TreAz, 25 μM) was added and the cells were incubated for another 4 hours. Cells were subjected to CuAAC and analyzed by flow cytometry as described above.

[3] = tested on: Msmeg PG-AGM and extractable lipids fractions; test: Cellular fractionation and fluorescence analysis of labeled Msmeg; format: cell-based, Mycobacterium smegmatis; details: for distribution of fluorescence between PG-AGM and extractable lipids fractions: Msmeg 4 h, O-AlkTMM 50 μM, N-AlkTMM 250 μm, 6-TreAz 25 μM, CHCl3/CH3OH extraction
Protocol: Cellular fractionation and analysis of labeled Msmeg. 10 mL Msmeg cultures were grown in 7H9 liquid medium in the presence of O-AlkTMM (50 μM), N-AlkTMM (250 μm) or left untreated in 15 mL conical tubes. A higher concentration of N-AlkTMM was used to maximize labeling efficiency. In parallel, cultures were grown in the presence of 6-TreAz (25 μM) or left […] untreated. Cells were incubated with shaking for 4 h at 37° C. until reaching late-log phase, then pelleted by centrifugation and washed with PBSB three times as described above. For O- and N-AlkTMM-labeled cells and their untreated control, the above-described click chemistry procedure was carried out with Az488 at a reaction volume of 500 μL. For 6-TreAz-labeled cells and their untreated control, the above-described click chemistry procedure was carried out with Alk488 at a reaction volume of 500 μL. After the click reactions, cells were pelleted by centrifugation and washed with PBSB three times as described above. Aliquots were removed and resuspended in PBS 1× for measurement of OD600 (for normalization of fluorescence values) and analysis by flow cytometry as shown in FIG. 13. The remainder of the cells were resuspended in 1 mL HPLC grade CH3OH and transferred to a glass screw-cap culture tube containing 2 mL CHCl3 and equipped with a stir bar. The CHCl3/CH3OH (2:1) cell suspension was stirred overnight to accomplish separation of the soluble extractable lipids from the insoluble PG-AGM material. The insoluble material was pelleted by centrifugation (3,600 rpm, 10 minutes, room temperature) and washed two times with CHCl3/CH3OH (2:1). The CHCl3/CH3OH (2:1) supernatants containing soluble extractable lipids were combined in a 20 mL glass scintillation vial and dried by rotary evaporation. Both fractions were subjected to TLC analysis as described in FIG. 12 to confirm separation of the extractable lipids from the PG-AGM material. Both fractions were then resuspended in 1 mL 5% aqueous tetrabutylammonium hydroxide (TBAH) in glass screw-cap culture tubes, sealed and then stirred overnight at 100° C. to saponify and solubilize the samples. Next, the samples were cooled to room temperature and 200 μL aliquots were transferred to a black flat-bottom 96-well plate.

[4] = tested on: M. smegmatis mc2155 (Msmeg); test: Metabolic labeling of Msmeg with AlkTMM probes, CuAAC with Az488, flow cytometry / microscopy; format: cell-based, Mycobacterium smegmatis; set-up: concentration at which labeling was saturable: unit not given here; details: for labeling after only a few seconds of culture time / labeling features in time-course fluorescence microscopy: Msmeg; for change in labeling between log- and stationary-phase Msmeg: growth phase dependence; for labeling of Msmeg: species specificity, flow cytometry and microscopy
[5] = tested on: C. glutamicum; test: AlkTMM labeling specificity, C. glutamicum; format: cell-based, Corynebacterium glutamicum; details: species specificity, flow cytometry and microscopy
[6] = tested on: Bacillus subtilis; test: AlkTMM labeling specificity, B. subtilis; format: cell-based; details: species specificity, flow cytometry and microscopy
[7] = tested on: Msmeg; test: Competition of AlkTMM labeling in Msmeg with unlabeled probes; format: cell-based, Mycobacterium smegmatis; details: competitor 250, 1000, 5000 μM, 4 h; O-AlkTMM 50 μM with O—C7TMM, N-AlkTMM 100 μM with N—C7TMM
Protocol: Competition of AlkTMM labeling in Msmeg. For O-AlkTMM competition experiments, Msmeg was cultured in 7H9 liquid medium in 96-well plates in the presence of O-AlkTMM (50 μM) and its unlabeled version, O—C7TMM, at concentrations of 250, 1000, and 5000 μM (or without competitor) for 4 h. For N-AlkTMM competition experiments, Msmeg was cultured in 7H9 liquid medium in the presence of N-AlkTMM (100 μM) and its unlabeled version, […], at concentrations of 250, 1000, and 5000 μM (or without competitor) for 4 h. Cells were subjected to CuAAC and analyzed by flow cytometry as described above.

[8] = tested on: SugABC-LpqY trehalose transporter; test: Labeling in Msmeg wild type versus Msmeg ΔsugC; format: cell-based, Mycobacterium smegmatis; details: Msmeg wild type vs ΔsugC
[9] = tested on: Msmeg; test: Growth of Msmeg during treatment with probes; format: cell-based, Mycobacterium smegmatis; details: up to 250 μM
Protocol: Plates were incubated at 37° C. […] Tubes were incubated at 37° C.

[10] = tested on: Escherichia coli; test: AlkTMM labeling specificity, E. coli; format: cell-based; details: species specificity, flow cytometry and microscopy
[11] = Water solubility of reporters
[12] = tested on: Cglut; test: Metabolic labeling of Cglut with TMM reporters 4-6; details: flow cytometry

With “6-O-(10-undecynoyl)-α,α-D-trehalose [O-AlkTMM-C11]” the “dependence of labeling on acyl chain length” value ([1]; Msmeg, 50 μM reporter, azido-488 CuAAC, flow cytometry) was “small increase”.

With `[N-]=[N+]=NC[C@H]1O[C@H](O[C@H]2O[C@H](CO)[C@@H](O)[C@H](O)[C@H]2O)[C@H](O)[C@@H](O)[C@@H]1O` [6-TreAz, reference compound] the “effect of ebselen treatment on Msmeg labeling” value ([2]; then 6-TreAz 25 μM 4 h) was “did not reduce” and the “distribution of fluorescence between PG-AGM and extractable lipids fractions” value [3] was “signal exclusively in the extractable lipids fraction”.

With `C#CCCCCC(=O)NCC1O[C@H](O[C@H]2OC(CO)[C@@H](O)C(O)[C@H]2O)C(O)[C@@H](O)[C@@H]1O` (stereo partly drawn) [N-AlkTMM, N-(6-heptynoyl)-6-amino-6-deoxy-α,α-D-trehalose] the “labeling after only a few seconds of culture time” value [4] was “significant labeling could be detected”, the “labeling features in time-course fluorescence microscopy” value [4] was “intensely fluorescent septa in dividing cells, highly polar labeling for short pulses, and diffuse surface labeling for longer pulses” and the “S/N reached under the conditions tested” value ([4]; Msmeg 14 h, 1-250 μm probe, Az488 CuAAC, flow cytometry) was over 150. For the same compound, the “signal lower than O-AlkTMM at the same concentrations” value ([4]; Msmeg 14 h, flow cytometry) was “approximately 10 fold”, the “change in labeling between log- and stationary-phase Msmeg” value [4] was “significant decrease” and the “labeling of Msmeg” value [4] was “strong labeling of the cell surface”. For the same compound, the “labeling of C. glutamicum” value [5] was “strong labeling of the cell surface”, the “decrease of labeling upon treatment of Msmeg with ebselen” value [2] was about 85% and the “labeling of B. subtilis” value [6] was “no labeling above background”. For the same compound, the “competition of labeling signal by unlabeled version of the probe” value [7] was “Dose-dependent competition of signal”, the “dependence of incorporation on trehalose transporter SugABC-LpqY” value [8] was “not dependent on the trehalose transporter SugABC-LpqY” and the “growth impairment of Msmeg” value [9] was “no growth impairment”. The “distribution of fluorescence between PG-AGM and extractable lipids fractions” value [3] was “signal only in the extractable lipids fraction” and the “labeling of E. coli” value [10] was “no labeling above background”.

For `C#CCCCCC(=O)OCC1O[C@H](O[C@H]2OC(CO)[C@@H](O)C(O)[C@H]2O)C(O)[C@@H](O)[C@@H]1O` (stereo partly drawn) [O-AlkTMM, 6-O-(6-heptynoyl)-α,α-D-trehalose], the water solubility [11] was “conveniently water-soluble”, the “labeling after only a few seconds of culture time” value [4] was “significant labeling could be detected” and the “labeling features in time-course fluorescence microscopy” value [4] was “intensely fluorescent septa in dividing cells, highly polar labeling for short pulses, and diffuse surface labeling for longer pulses”. The “concentration at which labeling was saturable” value ([4]; Msmeg 14 h, Az488 CuAAC, flow cytometry) was 50, the “signal-to-noise ratio (S/N) of labeling” value ([4]; Msmeg cultured 14 h, Az488 CuAAC, flow cytometry) was over 20 and the “change in labeling between log- and stationary-phase Msmeg” value [4] was “significant decrease”. For the same compound, the “labeling of Msmeg” value [4] was “strong labeling of the cell surface”, the “labeling of C. glutamicum” value [5] was “strong labeling of the cell surface” and the “decrease of labeling upon treatment of Msmeg with ebselen” value [2] was “approximately 70%”. For the same compound, the “labeling of B. subtilis” value [6] was “no labeling above background”, the “competition of labeling signal by unlabeled version of the probe” value [7] was “Dose-dependent competition of signal” and the “dependence of incorporation on trehalose transporter SugABC-LpqY” value [8] was “not dependent on the trehalose transporter SugABC-LpqY”. The “growth impairment of Msmeg” value [9] was “no growth impairment”, the “distribution of fluorescence between PG-AGM and extractable lipids fractions” value [3] was “nearly all of the fluorescence from O-AlkTMM treated Msmeg was present in the PG-AGM fraction” and the “fraction of probe reacting with TMM to form alkyne-labeled TDM” value ([3]; estimated from extractable lipids fluorescence, FIG. 7) was at most 10%. The “labeling of E. coli” value [10] was “no labeling above background”.

In the case of `C#CCCC(=O)OCC1O[C@H](O[C@H]2OC(CO)[C@@H](O)C(O)C2O)C(O)C(O)[C@@H]1O` (stereo partly drawn) [O-AlkTMM-C5, 6-O-(4-pentynoyl)-α,α-D-trehalose], the water solubility [11] is reported as “conveniently water-soluble”.

In the case of `[N-]=[N+]=NCCCCCCCCCC(=O)OCC1O[C@H](O[C@H]2OC(CO)[C@@H](O)C(O)C2O)C(O)C(O)[C@@H]1O` (stereo partly drawn) [O-AzTMM-C10, 6-O-(10-azidodecanoyl)-α,α-D-trehalose], the “concentration of labeling saturation” value [1] is reported as “approximately 25 μM”.

In the case of `O=C(CCCCCCCCCNC(=S)Nc1ccc2c(c1)C(=O)OC21c2ccc(O)cc2Oc2cc(O)ccc21)OC[C@H]1O[C@H](O[C@H]2O[C@H](CO)[C@@H](O)[C@H](O)[C@H]2O)[C@H](O)[C@@H](O)[C@@H]1O` [O-FITC-TMM, 6-O-(10-[(fluorescein-5-yl)thioureido]decanoyl)-α,α-D-trehalose], the “incorporation into Cglut relative to Msmeg” value [12] is reported as “much more efficiently than in Msmeg” and the “concentration of labeling saturation” value [1] is reported as at least 100 µM.

For `O=C(CCCCCCCCCNC(=O)OC1CC/C=C/CCC1)OC[C@H]1O[C@H](O[C@H]2O[C@H](CO)[C@@H](O)[C@H](O)[C@H]2O)[C@H](O)[C@@H](O)[C@@H]1O` (stereo partly drawn) [O-TCO-TMM, 6-O-(10-{N—[(E)-cylcooct-4-en1yloxy]carbonyl}aminodecanoyl)-α,α-D-trehalose], the “incorporation into Cglut relative to Msmeg” value [12] was “much more efficiently than in Msmeg” and the “concentration of labeling saturation” value [1] was “approximately 25 μM”.
